Where only a bound is given, the exact number is not on record here.

For one series, the system named is A/PuertoRico/8/1934 (H1N1) virus. As to the kind of experiment: microbe, parasite or virus in culture. The conditions noted are these: 20 µM. In kind it is cell-based, influenza A virus.
With Bambuterol HCl, the “NA Inhibition (%)” value is given as -2.9%.
Same read-out and setting: to Cyclizine 2HCl belongs -4.6%.
The same measure, in the same setting: to Gabapentin HCl belongs -16.1%; to Galanthamine HBr, -13.2%; to Hydroxyzine 2HCl, 18.4%.
Still for that read-out and setting: to Itopride hydrochloride belongs 9.1%.
For Ivabradine HCl, the “NA Inhibition (%)” value is -0.1%.
On to Lorcaserin HCl, for which the “NA Inhibition (%)” value is 17.8%.
Same read-out and setting: to Meclizine 2HCl belongs 74.9%; to MetoclopraMide HCl, -36.9%.
For the substance Naftopidil DiHCl, the “NA Inhibition (%)” value was 6.2%.
Regarding Naloxone HCl Dihydrate, the “NA Inhibition (%)” value was found to be 27.3%.
In the case of Ondansetron HCl, the “NA Inhibition (%)” value is on record as 4.7%.
With PRX-08066 Maleic acid, the “NA Inhibition (%)” value was 20.2%.
The same measure, in the same setting: to Paroxetine HCl belongs 51.2%; to Promethazine HCl, 64.8%.
For the substance Propranolol HCl, the “NA Inhibition (%)” value is 65.3%.
The same measure, in the same setting: to Salbutamol Sulfate belongs 6.4%; to Succinylcholine Chloride Dihydrate, 13.3%.
On to Synephrine HCl, for which the “NA Inhibition (%)” value was found to be 10.3%.
With Tetrahydrozoline HCl, the “NA Inhibition (%)” value is reported as 9.5%.

The test system is the same in the next series. Kind of series: microbe, parasite or virus in culture. The conditions noted are these: read-out: IC50. The series is classed as cell-based, influenza A virus.
A word on the IC50: it is the midpoint of a concentration-inhibition curve. For the substance Meclizine 2HCl, the IC50 was found to be 5.3 µM.
On the same count and under the same terms, to Promethazine HCl belongs 9.3 µM.

The next series concerns U937 cells.
Experiment: not given
The conditions noted are these: 20 µM.
With Bambuterol HCl, the “Relative Viability (%)” value came out at 102.5%.
For Cyclizine 2HCl, the “Relative Viability (%)” value worked out at 90.9%.
As to Gabapentin HCl, the “Relative Viability (%)” value is 111.9%.
On the same count and under the same terms, to Galanthamine HBr belongs 108.7%; to Hydroxyzine 2HCl, 101.7%; to Itopride hydrochloride, 109.7%.
Ivabradine HCl: the “Relative Viability (%)” value is listed as 104.6%.
Same read-out and setting: to Lorcaserin HCl belongs 104.4%; to Meclizine 2HCl, 109.3%; to MetoclopraMide HCl, 126.3%.
The same measure, in the same setting: to Naftopidil DiHCl belongs 88.1%; to Naloxone HCl Dihydrate, 113.1%.
The same measure, in the same setting: to Ondansetron HCl belongs 98.5%; to PRX-08066 Maleic acid, 92.0%.
On to Paroxetine HCl, for which the “Relative Viability (%)” value worked out at 85.1%.
In the case of Promethazine HCl, the “Relative Viability (%)” value was determined as 105.7%.
For the substance Salbutamol Sulfate, the “Relative Viability (%)” value was 114.7%.
In the case of Succinylcholine Chloride Dihydrate, the “Relative Viability (%)” value is listed as 99.6%.
Turning to Synephrine HCl, the “Relative Viability (%)” value worked out at 99.1%.
The same measure, in the same setting: to Tetrahydrozoline HCl belongs 96.0%.

Another series relates to U937 cells.
Experiment: not given
Details: not given
The term CC50 denotes the concentration that lowers cell viability or growth by half. Low values mean harm at low concentration, high ones better tolerance by the cells. Regarding Meclizine 2HCl, the CC50 was found to be 79.5 µM.
On the same count and under the same terms, to Promethazine HCl belongs over 80 µM; to Propranolol HCl, over 80 µM.

Source of the values: article PMC12069340 (Frontiers in Cellular and Infection Microbiology, 2025).
